The values below come from article PMC8241751, “Influence of the Dabcyl group on the cellular uptake of cationic peptides: short oligoarginines as efficient cell-penetrating peptides” (Amino Acids, 2021).

What all share (assay type): cell-based, human
For data set [1], the system named is HeLa cells. Description: Confocal microscopy of internalisation into HeLa cells. The note with it: 37 °C. How it is done:
HeLa cells (2.0 × 10^5 cells) seeded in 35-mm glass-bottomed dishes (Iwaki) were cultured at a 37 °C incubator for 24 h. The cells were then incubated with peptide in α-MEM( +) and α-MEM(–) for 30 min at 37 °C or 4 °C. After washing with PBS( +) containing 0.5% (w/v) heparin, intracellular distribution of the fluorescently-labelled peptides was analysed without fixing using a confocal microscope (FV1000, Olympus). For time-lapse imaging, the cells were placed at 37 °C in a microchamber (MI-IBC-IF, Olympus) attached on the stage of the inverted microscope. The cells were then treated with 5 µM of Dabcyl–Arg6–Lys(Rh)–NH2 or Dabcyl–Arg4–Lys(Cf)–NH2 in α-MEM( +) or α-MEM(–). Time 0 represents the image immediately after the addition of conjugates.

The next data set relates to HL-60 cells. Description: In vitro cytostatic activity (MTT) on HL-60. How it is done: The cells (HL-60 or MCF-7) were grown to confluency and were plated into 96-well plate with initial cell number of 5 × 10^3 per well. After 24 h incubation at 37 °C, cells were treated with the compounds at 1.28 × 10^–3–100 μM concentration range for 3 h in 200 μL final volume. Control cells were treated with serum free medium at 37 °C for 3 h. After incubation the cells were washed twice with serum free medium. For the analysis of the in vitro cytostatic effect, cells were cultured for an additional 72 h in serum containing medium. On day 4, MTT assay was carried out to determine the IC50 values of the compounds. Briefly, 45 μL of MTT solution was added to each well (2 mg/mL, dissolved in serum-free medium). Following the 4 h incubation, plates were centrifuged at 900 g for 5 min, and the supernatant was removed. The precipitated purple crystals were dissolved in 100 μL DMSO and the absorbance was determined at λ = 540 nm and λ = 620 nm using ELISA plate reader (iEMSReader, Labsystems, Finland). The percent of cytostasis was calculated using the following equation: Cytostatic effect (%) = [1 − (ODtreated/ODcontrol)] × 100; where ODtreated and ODcontrol correspond to the optical densities of the treated and the untreated control cells, respectively. In each case three independent experiments were carried out with four parallel measurements. […] The curves were defined using MicrocalTM Origin (version 9.2) software: cytostasis was plotted as a function of concentration, fitted to a sigmoidal curve, and based on this curve, the IC50 value was determined.

Data set [2] deals with HeLa cells. Description: Cellular uptake by flow cytometry on HeLa cells. Particulars: 30 min; for Cellular uptake in the presence of serum: α-MEM(+), lowest studied concentration (2.5 μM). How it is done:
HeLa cells (8.0 × 10^4/well) in α-MEM( +) were cultured in 24-well microplates overnight at 37 °C. Cells were treated with fluorescently-labelled peptides (2.5, 5 and 10 μM) in α-MEM( +) and α-MEM without 10% BS [α-MEM(–)], respectively, for 30 min at 37 °C. After being washed with phosphate-buffered saline (PBS), cells were incubated with 0.01% trypsin in PBS for 10 min at 37 °C. The collected cells were then centrifuged at 800 g for 5 min at 4 °C, washed twice with PBS, and subjected to flow cytometry analysis (Attune NxT Flow Cytometer, ThermoFisher). Each sample was analysed over 10,000 events.

Turning to `CN(C)c1ccc(C(=O)N[C@@H](CCCNC(=N)N)C(=O)N[C@@H](CCCNC(=N)N)C(=O)N[C@@H](CCCNC(=N)N)C(=O)N[C@@H](CCCNC(=N)N)C(=O)N[C@@H](CCCNC(=N)N)C(=O)N[C@@H](CCCNC(=N)N)C(=O)N[C@@H](CCCCNC(=O)c2ccc3c(c2)C(=O)OC32c3ccc(O)cc3Oc3cc(O)ccc32)C(N)=O)cc1` [Dmab–Arg6–Lys(Cf)–NH2], the “Effect on the cell viability (morphology, number of cells)” value in the data set with HeLa cells [1] (1-20 μM, confocal microscopy) was “no effect on the cell viability”.
For `CN(C)c1ccc(/N=N/c2ccc(C(=O)N[C@@H](CCCNC(=N)N)C(=O)N[C@@H](CCCNC(=N)N)C(=O)N[C@@H](CCCNC(=N)N)C(=O)N[C@@H](CCCNC(=N)N)C(=O)N[C@@H](CCCNC(=N)N)C(=O)N[C@@H](CCCNC(=N)N)C(=O)N[C@@H](CCCCN)C(N)=O)cc2)cc1` [Dabcyl–Arg6–Lys–NH2], in the data set with HL-60 cells (HL-60, 3 h incubation, then 3 days in serum-containing medium, MTT assay, ± sd, three independent experiments with four parallels), the half-maximal inhibitory concentration (IC50) was above 100 µM. In addition, in the data set on HL-60 cells (up to c = 100 μM), the “Cytostatic effect on HL-60 cells” value is reported as “no cytostatic effect”.
Consider “Dabcyl–RRRRRRK(Rh)–NH2 [Dabcyl–Arg6–Lys(Rh)–NH2, Dabcyl-modified hexaarginine with carboxytetramethylrhodamine on lysine]”, for which the “Internalisation in the absence of serum compared to serum (+)” value in the data set with HeLa cells [2] (2.5 µM, 37 °C) is reported as “twice”. Besides, the “Cellular uptake, times higher than hexaarginine's” value in the data set on HeLa cells [2] (absence of serum, 2.5 µM, 37 °C) was found to be 3 times. Moreover, in the data set on HeLa cells [2], the “Cellular uptake in the presence of serum” value was “markedly pronounced”. Also, the “Time needed to get well detectable signal with diffuse cytosolic distribution” value in the data set on HeLa cells [1] (5 μM, α-MEM(+), time-lapse imaging) stood at 25 min. Also, in the data set with HeLa cells [1] (30 min, confocal microscopy), the “Threshold concentration above which distribution becomes diffuse” value is reported as “under 5 μM”. Also, the Intracellular distribution entry in the data set with HeLa cells [1] (α-MEM(+) with serum, 10 µM, 30 min) was “diffuse cytosolic localisation”; in the data set with HeLa cells [1] (α-MEM(–), 2.5 μM, 30 min) it was “diffuse distribution pattern”. Moreover, the “Morphology of the cells” value in the data set with HeLa cells [1] (α-MEM(–), 5 and 10 μM, 30 min, cell number also decreased) was “dramatically changed”.
As to “Ac–RRRRRRK(Rh)–NH2 [Ac–Arg6–Lys(Rh)–NH2, acetylated hexaarginine with carboxytetramethylrhodamine on lysine]”, in the data set with HeLa cells [2], the “Cellular uptake in the presence of serum” value was “undetectable”. The Intracellular distribution entry in the data set with HeLa cells [1] (α-MEM(–), 5 and 10 μM, 30 min) is on record as “punctate distribution”.
